27 molecules from US20260049076A1, “Tertiary Amine Substituted Bicyclic Compounds Useful as T Cell Activators” (BRISTOL-MYERS SQUIBB COMPANY, priority 2022, published 2026) can be followed below.

One experiment deals with T1, human DGKα (Homo sapiens, UniProt P23743).
T1 construct: TVMV protease cleavage site (C); Hexa-His (C); made in house; host or cells: Sf9 insect cells (baculovirus)
Nature of the experiment: In vitro DGK inhibition assay, DGKα liposome (LIPGLO) assay. It counts as biochemical. The settings on record: read-out: Enzyme Inhibition DGKalpha IC50. The method in brief:
(§1)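 Baculovirus/Sf9-expressed His-tagged human DGKα or DGKζ (5 nM) on extruded liposomes (2 mM PS, 0.25 mM DAG, 2.75 mM PC) in MOPS pH 7.5 with MgCl2, CaCl2 and 150 μM ATP, 1 h.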

The target in a further experiment is T2, human DGKζ (Homo sapiens, UniProt Q13574).
T2 construct: TVMV protease cleavage site (C); Hexa-His (C); made in house; host or cells: Sf9 insect cells (baculovirus)
Description: In vitro DGK inhibition assay, DGKζ liposome (LIPGLO) assay. It counts as biochemical. The settings on record: read-out: Enzyme Inhibition DGKzeta IC50. The procedure, abridged:
as §1

The next experiment deals with DGKalpha (Homo sapiens, UniProt P23743). Description: Translocation DGKalpha. In kind it is cell-based.
Another experiment has as its target DGKzeta (Homo sapiens, UniProt Q13574). Description: Translocation DGKzeta. In kind it is cell-based.

A value given as a limit tells only on which side of the number the result lay.

T2 sequence (Q13574 with tags, fused parts or gaps isoform Q13574-4): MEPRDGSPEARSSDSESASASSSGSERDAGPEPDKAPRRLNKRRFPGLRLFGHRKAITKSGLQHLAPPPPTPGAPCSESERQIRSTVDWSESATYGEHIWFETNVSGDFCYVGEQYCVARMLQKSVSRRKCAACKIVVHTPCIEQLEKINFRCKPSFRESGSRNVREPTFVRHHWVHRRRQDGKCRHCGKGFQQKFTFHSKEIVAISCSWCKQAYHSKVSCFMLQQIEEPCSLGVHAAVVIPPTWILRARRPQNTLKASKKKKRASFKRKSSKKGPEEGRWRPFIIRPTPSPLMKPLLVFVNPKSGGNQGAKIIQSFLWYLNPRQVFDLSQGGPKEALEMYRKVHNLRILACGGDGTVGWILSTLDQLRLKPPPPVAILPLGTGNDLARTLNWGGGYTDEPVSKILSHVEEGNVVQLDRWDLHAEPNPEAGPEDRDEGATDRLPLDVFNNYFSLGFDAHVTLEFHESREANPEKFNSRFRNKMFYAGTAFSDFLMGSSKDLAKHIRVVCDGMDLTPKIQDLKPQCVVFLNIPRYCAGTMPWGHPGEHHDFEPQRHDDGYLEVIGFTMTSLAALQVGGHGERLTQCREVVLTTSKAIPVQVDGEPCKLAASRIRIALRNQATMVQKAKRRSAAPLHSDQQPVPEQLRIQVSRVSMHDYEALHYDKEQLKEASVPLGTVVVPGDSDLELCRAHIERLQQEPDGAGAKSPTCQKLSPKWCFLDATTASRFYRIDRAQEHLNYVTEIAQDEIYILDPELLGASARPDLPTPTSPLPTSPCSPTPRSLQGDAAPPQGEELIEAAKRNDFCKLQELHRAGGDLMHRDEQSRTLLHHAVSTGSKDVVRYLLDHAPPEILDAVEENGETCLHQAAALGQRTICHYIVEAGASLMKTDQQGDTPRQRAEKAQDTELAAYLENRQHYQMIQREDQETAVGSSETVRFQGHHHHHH
Sequence of DGKalpha (P23743 whole entry): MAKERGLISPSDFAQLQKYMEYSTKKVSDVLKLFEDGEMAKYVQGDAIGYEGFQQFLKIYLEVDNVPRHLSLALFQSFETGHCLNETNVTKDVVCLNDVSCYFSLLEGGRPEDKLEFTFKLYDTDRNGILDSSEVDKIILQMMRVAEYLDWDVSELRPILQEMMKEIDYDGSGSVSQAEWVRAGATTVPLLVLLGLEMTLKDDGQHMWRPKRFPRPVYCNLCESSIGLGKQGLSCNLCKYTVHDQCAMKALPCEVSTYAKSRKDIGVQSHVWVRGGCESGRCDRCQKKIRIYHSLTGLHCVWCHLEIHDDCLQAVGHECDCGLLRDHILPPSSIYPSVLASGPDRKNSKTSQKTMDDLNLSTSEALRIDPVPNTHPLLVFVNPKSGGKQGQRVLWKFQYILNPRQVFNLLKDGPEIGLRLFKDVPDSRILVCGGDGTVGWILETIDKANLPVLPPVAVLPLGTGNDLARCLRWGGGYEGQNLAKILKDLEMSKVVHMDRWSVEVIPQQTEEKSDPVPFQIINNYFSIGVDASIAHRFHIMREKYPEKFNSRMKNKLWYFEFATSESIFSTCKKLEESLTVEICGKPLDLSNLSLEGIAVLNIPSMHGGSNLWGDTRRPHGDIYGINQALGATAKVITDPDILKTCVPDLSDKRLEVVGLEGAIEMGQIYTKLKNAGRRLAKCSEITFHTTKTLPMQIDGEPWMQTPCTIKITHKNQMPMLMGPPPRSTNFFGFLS
Sequence of DGKzeta (Q13574 whole entry): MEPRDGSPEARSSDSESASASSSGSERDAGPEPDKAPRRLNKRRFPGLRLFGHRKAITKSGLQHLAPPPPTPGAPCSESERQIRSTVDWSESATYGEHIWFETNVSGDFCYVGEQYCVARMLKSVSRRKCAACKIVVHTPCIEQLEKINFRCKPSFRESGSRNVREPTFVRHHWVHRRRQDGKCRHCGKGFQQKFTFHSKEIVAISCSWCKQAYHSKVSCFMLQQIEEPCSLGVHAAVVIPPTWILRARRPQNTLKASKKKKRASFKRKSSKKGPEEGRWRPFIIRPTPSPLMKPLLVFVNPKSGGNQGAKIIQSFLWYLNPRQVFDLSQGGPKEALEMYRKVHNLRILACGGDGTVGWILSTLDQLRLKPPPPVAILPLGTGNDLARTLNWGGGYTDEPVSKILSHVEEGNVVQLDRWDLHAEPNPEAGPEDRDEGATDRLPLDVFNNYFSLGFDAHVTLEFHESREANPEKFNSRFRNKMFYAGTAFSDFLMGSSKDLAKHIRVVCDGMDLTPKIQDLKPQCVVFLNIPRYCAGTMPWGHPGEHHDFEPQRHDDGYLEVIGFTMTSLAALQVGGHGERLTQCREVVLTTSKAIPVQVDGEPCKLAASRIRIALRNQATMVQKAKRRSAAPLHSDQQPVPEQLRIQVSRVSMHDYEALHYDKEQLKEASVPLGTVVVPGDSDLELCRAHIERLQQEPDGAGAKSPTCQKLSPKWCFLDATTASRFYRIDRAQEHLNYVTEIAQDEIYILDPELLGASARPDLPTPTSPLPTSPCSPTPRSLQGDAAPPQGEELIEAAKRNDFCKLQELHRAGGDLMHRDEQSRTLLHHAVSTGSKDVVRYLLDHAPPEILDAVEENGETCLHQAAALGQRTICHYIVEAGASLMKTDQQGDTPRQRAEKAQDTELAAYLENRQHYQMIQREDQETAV
T1 sequence (P23743 with tags, fused parts or gaps): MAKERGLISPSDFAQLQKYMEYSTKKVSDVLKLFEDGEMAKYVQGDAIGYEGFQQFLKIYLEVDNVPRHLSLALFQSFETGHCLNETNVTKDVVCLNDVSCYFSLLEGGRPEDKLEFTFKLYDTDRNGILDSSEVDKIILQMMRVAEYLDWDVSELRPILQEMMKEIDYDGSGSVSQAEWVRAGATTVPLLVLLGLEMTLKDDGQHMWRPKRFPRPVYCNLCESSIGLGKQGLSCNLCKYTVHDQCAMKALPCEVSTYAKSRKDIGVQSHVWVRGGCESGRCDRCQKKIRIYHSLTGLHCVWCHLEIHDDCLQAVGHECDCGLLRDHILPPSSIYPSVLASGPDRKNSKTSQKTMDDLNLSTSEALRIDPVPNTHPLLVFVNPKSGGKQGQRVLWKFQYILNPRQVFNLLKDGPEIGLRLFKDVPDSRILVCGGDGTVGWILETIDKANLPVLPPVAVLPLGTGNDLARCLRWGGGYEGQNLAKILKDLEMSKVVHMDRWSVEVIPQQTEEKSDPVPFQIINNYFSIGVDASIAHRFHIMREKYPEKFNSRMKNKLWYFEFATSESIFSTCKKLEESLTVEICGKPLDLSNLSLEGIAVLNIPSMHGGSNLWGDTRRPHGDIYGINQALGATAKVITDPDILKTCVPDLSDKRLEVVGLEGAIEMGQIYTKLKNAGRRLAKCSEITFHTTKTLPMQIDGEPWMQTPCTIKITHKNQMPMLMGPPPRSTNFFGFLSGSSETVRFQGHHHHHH

For the molecule `Cc1ccc(N(CC2CC2)c2cc(=O)n(C)c3ccc(C#N)nc23)cc1` [Example 62, 8-((cyclopropylmethyl)(p-tolyl)amino)-5-methyl-6-oxo-5,6-dihydro-1,5-naphthyridine-2-carbonitrile], the values for the IC50 on human DGKα and at human DGKζ were 3.8 µM and 2.9 µM, respectively. Also, the concentration giving a half-maximal response (EC50) – broadly, the midpoint of the concentration-response curve – amounted to 0.75 µM on DGKalpha and 0.54 µM at DGKzeta.
`Cc1cc(N(CC2CC2)c2cc(=O)n(C)c3ccc(C#N)nc23)ccc1OC(F)F` [Example 117, 8-((cyclopropylmethyl)(4-(difluoromethoxy)-3-methylphenyl)amino)-5-methyl-6-oxo-5,6-dihydro-1,5-naphthyridine-2-carbonitrile]: the concentration for half-maximal inhibition (IC50) (usually the concentration that gives 50% inhibition) on human DGKα amounted to 8.8 µM; at human DGKζ it was 4.7 µM. Besides, the concentration for a half-maximal effect (EC50) on DGKalpha is greater than 3 µM; at DGKzeta, 0.16 µM.
For `Cn1c(=O)cc(N(CC2CC2)c2ccc(OC(F)F)cn2)c2nc(C#N)ccc21` [Example 123] the same measures were 24 µM, 1.2 µM, greater than 3 µM and 0.64 µM.
In the case of `Cn1c(=O)cc(N(CC2CC2)[C@H]2CC[C@H](c3ccccc3)CC2)c2nc(C#N)ccc21` [Example 121, 8-((cyclopropylmethyl)((1r,4r)-4-phenylcyclohexyl)amino)-5-methyl-6-oxo-5,6-dihydro-1,5-naphthyridine-2-carbonitrile], the concentration for half-maximal inhibition (IC50) at human DGKα was 16 µM; on human DGKζ it was 18 µM. In addition, the EC50 on DGKzeta is 0.29 µM.
`Cn1c(=O)cc(N(CC2CC2)c2ccc(OC(F)F)c(C#N)c2)c2nc(C#N)ccc21` [Example 63, 8-((3-cyano-4-(difluoromethoxy)phenyl)(cyclopropylmethyl)amino)-5-methyl-6-oxo-5,6-dihydro-1,5-naphthyridine-2-carbonitrile]: the values for the IC50 on human DGKα and on human DGKζ were 6.3 µM and 12 µM, respectively. On DGKzeta, this molecule gave a concentration for a half-maximal effect (EC50) of 1.3 µM.
As to `Cn1c(=O)cc(N(CC2CC2)c2ccc(C3CCC3)cc2)c2nc(C#N)ccc21` [Example 118, 8-((4-cyclobutylphenyl) (cyclopropylmethyl)amino)-5-methyl-6-oxo-5,6-dihydro-1,5-naphthyridine-2-carbonitrile], the IC50 stood at 9.3 µM at human DGKα and 1.3 µM at human DGKζ. Also, the EC50 at DGKzeta came out at 0.013 µM.
For `Cn1c(=O)cc(N(CC2CC2)c2ccc(C3CCCCC3)cc2)c2nc(C#N)ccc21` [Example 119, 8-((4-cyclohexylphenyl)(cyclopropylmethyl)amino)-5-methyl-6-oxo-5,6-dihydro-1,5-naphthyridine-2-carbonitrile] the same measures were 13 µM, 12 µM and 0.041 µM.
For `Cn1c(=O)cc(N(CC2CC2)c2ccc(C#N)nc2)c2nc(C#N)ccc21` [Example 66, 8-((6-cyanopyridin-3-yl)(cyclopropylmethyl)amino)-5-methyl-6-oxo-5,6-dihydro-1,5-naphthyridine-2-carbonitrile] the same measures were 17 µM, 8.4 µM and 3 µM.
For `Cn1c(=O)cc(N(CC2CC2)c2ccc(F)nc2)c2nc(C#N)ccc21` [Example 64, 8-((cyclopropylmethyl)(6-fluoropyridin-3-yl)amino)-5-methyl-6-oxo-5,6-dihydro-1,5-naphthyridine-2-carbonitrile] the same measures were 0.15 µM, 3 µM and 1.6 µM.
`Cn1c(=O)cc(N(CC2CC2)c2ccc(-c3ccccc3O)cc2)c2nc(C#N)ccc21` [Example 80, 8-((cyclopropylmethyl)(2′-hydroxy-[1,1′-biphenyl]-4-yl)amino)-5-methyl-6-oxo-5,6-dihydro-1,5-naphthyridine-2-carbonitrile]: the IC50 on human DGKα was found to be 6.3 µM; on human DGKζ it was 1.3 µM.
The matching figures for `Cn1c(=O)cc(N(CC2CC2)c2cccc(-c3ccc(Cl)cc3)c2)c2nc(C#N)ccc21` [Example 71, 8-((4′-chloro-[1,1′-biphenyl]-3-yl)(cyclopropylmethyl)amino)-5-methyl-6-oxo-5,6-dihydro-1,5-naphthyridine-2-carbonitrile]: 0.14 µM and 15 µM.
Consider `Cn1c(=O)cc(N(CC2CC2)c2cccc(-c3cccc(Cl)c3)c2)c2nc(C#N)ccc21` [Example 94, 8-((3′-chloro-[1,1′-biphenyl]-3-yl) (cyclopropylmethyl)amino)-5-methyl-6-oxo-5,6-dihydro-1,5-naphthyridine-2-carbonitrile], for which the values for the concentration for half-maximal inhibition (IC50) at human DGKα and at human DGKζ were 2.5 µM and 9.1 µM, respectively.
For `Cc1ccccc1N(C)c1cc(=O)n(C)c2ccc(C#N)nc12` [Example 26, 5-methyl-8-(methyl(o-tolyl)amino)-6-oxo-5,6-dihydro-1,5-naphthyridine-2-carbonitrile] the same measures were 0.96 µM and 37 µM.
Consider `Cn1c(=O)cc(N(CC2CC2)c2ccc(-c3cccc(C(N)=O)c3)cc2)c2nc(C#N)ccc21` [Example 84, 4′-((6-cyano-1-methyl-2-oxo-1,2-dihydro-1,5-naphthyridin-4-yl)(cyclopropylmethyl)amino)-[1,1′-biphenyl]-3-carboxamide], for which the IC50 is 18 µM on human DGKα and 7.6 µM at human DGKζ.
For `Cn1c(=O)nc(N(CC2CC2)c2ccc(C3CC3)cc2)c2nc(Cl)ccc21` [Example 58, 6-chloro-4-((cyclopropylmethyl) (4-cyclopropylphenyl)amino)-1-methylpyrido[3,2-d]pyrimidin-2(1H)-one] the same measures were 3.8 µM and 1 µM.
The matching figures for `Cn1c(=O)cc(N(CC2CC2)c2cccc(OC(F)(F)F)c2)c2nc(C#N)ccc21` [Example 43, 8-((cyclopropylmethyl)(3-(trifluoromethoxy)phenyl)amino)-5-methyl-6-oxo-5,6-dihydro-1,5-naphthyridine-2-carbonitrile]: 1.1 µM and 26 µM.
For the molecule `Cc1ccc(-c2ccc(N(CC3CC3)c3cc(=O)n(C)c4ccc(C#N)nc34)cc2)cc1` [Example 69, 8-((cyclopropylmethyl)(4′-methyl-[1,1′-biphenyl]-4-yl)amino)-5-methyl-6-oxo-5,6-dihydro-1,5-naphthyridine-2-carbonitrile], the IC50 is 5.5 µM on human DGKα and 7.5 µM on human DGKζ.
The matching figures for `CN(c1cccc(-c2ccc(OC(F)(F)F)cc2)c1)c1nc(=O)n(C)c2ccc(C#N)nc12` [Example 3, 1-methyl-4-(methyl(4′-(trifluoromethoxy)-[1,1′-biphenyl]-3-yl)amino)-2-oxo-1,2-dihydropyrido[3,2-d]pyrimidine-6-carbonitrile]: 1.8 µM and greater than 38 µM.
For `Cn1c(=O)cc(N(CC2CC2)c2cccc(-c3cccc(C(N)=O)c3)c2)c2nc(C#N)ccc21` [Example 104, 3′-((6-cyano-1-methyl-2-oxo-1,2-dihydro-1,5-naphthyridin-4-yl) (cyclopropylmethyl)amino)-[1,1′-biphenyl]-3-carboxamide] the same measures were 41 µM and 5.2 µM.
`Cn1c(=O)cc(N(Cc2ccccc2)CC2CC2)c2nc(C#N)ccc21` [Example 52, 8-(benzyl(cyclopropylmethyl)amino)-5-methyl-6-oxo-5,6-dihydro-1,5-naphthyridine-2-carbonitrile]: the IC50 turned out to be 4.5 µM on human DGKα and 12 µM at human DGKζ.
For `CN(c1ccc(F)c(F)c1)c1cc(=O)n(C)c2ccc(C#N)nc12` [Example 28, 8-((3,4-difluorophenyl)(methyl)amino)-5-methyl-6-oxo-5,6-dihydro-1,5-naphthyridine-2-carbonitrile] the same measures were 0.44 µM and 120 µM.
Turning to `CN(C)c1cccc(-c2cccc(N(CC3CC3)c3cc(=O)n(C)c4ccc(C#N)nc34)c2)c1` [Example 109, 8-((cyclopropylmethyl)(3′-(dimethylamino)-[1,1′-biphenyl]-3-yl)amino)-5-methyl-6-oxo-5,6-dihydro-1,5-naphthyridine-2-carbonitrile], the values for the IC50 on human DGKα and at human DGKζ were 6.3 µM and 3.7 µM, respectively.
The matching figures for `CN(c1ccc(Cl)cc1)c1cc(=O)n(C)c2ccc(C#N)nc12` [Example 29, 8-((4-chlorophenyl)(methyl)amino)-5-methyl-6-oxo-5,6-dihydro-1,5-naphthyridine-2-carbonitrile]: 0.45 µM and 17 µM.
For `Cn1c(=O)cc(N(CC2CC2)c2cccc(-c3ccc(CNS(C)(=O)=O)cc3)c2)c2nc(C#N)ccc21` [Example 102, N-((3′-((6-cyano-1-methyl-2-oxo-1,2-dihydro-1,5-naphthyridin-4-yl)(cyclopropylmethyl)amino)-[1,1′-biphenyl]-4-yl)methyl)methanesulfonamide] the same measures were 0.18 µM and 3.5 µM.
The matching figures for `Cn1c(=O)c(C#N)c(N(CC2CC2)c2ccc(C3CC3)cc2)c2ncccc21` [Example 60, 4-((cyclopropylmethyl)(4-cyclopropylphenyl)amino)-1-methyl-2-oxo-1,2-dihydro-1,5-naphthyridine-3-carbonitrile]: greater than 37 µM and 1.4 µM.
As to `COc1ccc(-c2ccc(N(CC3CC3)c3cc(=O)n(C)c4ccc(C#N)nc34)cc2)cc1` [Example 73, 8-((cyclopropylmethyl)(4′-methoxy-[1,1′-biphenyl]-4-yl)amino)-5-methyl-6-oxo-5,6-dihydro-1,5-naphthyridine-2-carbonitrile], the concentration for half-maximal inhibition (IC50) on human DGKα is 5.3 µM; at human DGKζ, 2 µM.
The matching figures for `COc1cc(-c2ccc(N(CC3CC3)c3cc(=O)n(C)c4ccc(C#N)nc34)cc2)ccn1` [Example 90, 8-((cyclopropylmethyl)(4-(2-methoxypyridin-4-yl)phenyl)amino)-5-methyl-6-oxo-5,6-dihydro-1,5-naphthyridine-2-carbonitrile]: 12 µM and 5 µM.
